This passage reports inhibition, IC50 and Ki results from paper PMC4795788, “Finding Potent Sirt Inhibitor in Coffee: Isolation, Confirmation and Synthesis of Javamide-II (N-Caffeoyltryptophan) as Sirt1/2 Inhibitor” (PLoS ONE, 2016).

A word on the inhibition: it is the change of the read-out against control, counted positive when it falls. The IC50 is the concentration that inhibits the measured activity by half. High values mean lower potency, low ones higher potency. Broadly, the Ki is a measure of affinity in units of concentration, obtained from inhibition or displacement. Lower therefore signals higher affinity.

Common to all, as to assay type: biochemical
In one test the target is T1, Sirt3 (Homo sapiens, UniProt Q9NTG7).
T1 construct: human recombinant Sirt3 (Cayman Direct Fluorescent Screening Assay kit)
T1 sequence (Q9NTG7 102-399): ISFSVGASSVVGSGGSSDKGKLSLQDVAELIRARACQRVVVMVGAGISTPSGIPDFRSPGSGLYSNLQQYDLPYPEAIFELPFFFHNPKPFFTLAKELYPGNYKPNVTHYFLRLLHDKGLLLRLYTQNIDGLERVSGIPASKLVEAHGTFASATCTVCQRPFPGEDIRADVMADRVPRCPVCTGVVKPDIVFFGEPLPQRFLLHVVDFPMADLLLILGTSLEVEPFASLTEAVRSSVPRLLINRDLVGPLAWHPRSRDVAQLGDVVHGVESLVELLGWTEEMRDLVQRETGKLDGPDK
The experiment in a line: fluorescent deacetylase assay, % inhibition at […].

For a further test, the target named is T2, Sirt1 (Homo sapiens, UniProt Q96EB6).
T2 construct: human recombinant Sirt1 (Cayman Direct Fluorescent Screening Assay kit)
T2 sequence (Q96EB6 2-747): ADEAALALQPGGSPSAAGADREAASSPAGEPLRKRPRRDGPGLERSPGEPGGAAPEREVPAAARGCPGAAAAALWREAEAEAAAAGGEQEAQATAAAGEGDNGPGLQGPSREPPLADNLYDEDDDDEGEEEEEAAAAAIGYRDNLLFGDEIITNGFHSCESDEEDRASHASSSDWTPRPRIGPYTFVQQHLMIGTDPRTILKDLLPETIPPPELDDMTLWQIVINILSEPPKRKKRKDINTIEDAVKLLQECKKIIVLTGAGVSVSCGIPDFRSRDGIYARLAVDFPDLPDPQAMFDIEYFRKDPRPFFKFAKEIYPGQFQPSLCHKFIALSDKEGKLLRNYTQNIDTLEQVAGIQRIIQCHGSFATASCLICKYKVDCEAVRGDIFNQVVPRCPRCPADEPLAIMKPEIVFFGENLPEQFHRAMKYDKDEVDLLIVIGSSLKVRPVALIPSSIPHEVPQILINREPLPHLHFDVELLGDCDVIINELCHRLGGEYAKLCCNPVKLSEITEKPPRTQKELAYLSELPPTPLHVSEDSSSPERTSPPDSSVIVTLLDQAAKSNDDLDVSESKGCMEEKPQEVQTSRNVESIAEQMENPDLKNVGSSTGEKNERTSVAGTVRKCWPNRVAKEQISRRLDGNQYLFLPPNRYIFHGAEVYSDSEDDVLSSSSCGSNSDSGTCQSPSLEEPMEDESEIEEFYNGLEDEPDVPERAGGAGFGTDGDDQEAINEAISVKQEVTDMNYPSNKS
The experiment in a line: fluorescent deacetylase assay.

Another test has as its target T3, Sirt2 (Homo sapiens, UniProt Q8IXJ6).
T3 sequence (Q8IXJ6 2-389): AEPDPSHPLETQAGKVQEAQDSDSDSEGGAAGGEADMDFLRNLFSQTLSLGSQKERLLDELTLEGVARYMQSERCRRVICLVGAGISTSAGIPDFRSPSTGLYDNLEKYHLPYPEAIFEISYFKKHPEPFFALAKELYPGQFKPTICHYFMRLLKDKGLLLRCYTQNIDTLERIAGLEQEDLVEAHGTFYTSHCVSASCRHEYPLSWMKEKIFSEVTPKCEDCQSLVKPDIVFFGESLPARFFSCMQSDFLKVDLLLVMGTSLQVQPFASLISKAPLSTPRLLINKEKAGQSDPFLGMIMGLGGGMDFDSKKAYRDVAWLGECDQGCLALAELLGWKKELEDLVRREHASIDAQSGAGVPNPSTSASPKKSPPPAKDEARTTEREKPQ
The experiment in a line: fluorescent deacetylase assay, Lineweaver-Burk kinetics (IC50 […]).

In turn, `O=C(/C=C/c1ccc(O)c(O)c1)N[C@@H](Cc1c[nH]c2ccccc12)C(=O)O` [javamide-II, (E)-(3-(3,4-dihydroxyphenyl)acryloyl)tryptophan] gave an inhibition at 60 µM against Sirt3 of 50 ± 8.1%. For the same molecule, half-maximal inhibition against Sirt1 (IC50) required 34 µM. At Sirt2, this molecule displayed a Ki of 5.3 µM.
